In patent US12138273B2 (Propella Therapeutics, Inc., priority 2019, dated 2024):

How the values were obtained:
[1] = Beagle, dog, in vivo
[2] = dog, in vivo
Source text: An additional study was done using dogs as the animal model instead of rats.

| mean AUCINF following IM administration, corrected for dose and time units [1] [ng·h/mL] | % F ([2]; male) [%] | measurable blood levels out to ([2]; male) [h] | AUCINF/Dose ([2]; male, im) | SMILES | irritation at the injection site [2] |
| --- | --- | --- | --- | --- | --- |
| 105 | – | – | – | C[C@]12CC[C@H](O)CC1=CC[C@@H]1[C@@H]2CC[C@]2(C)C(c3cccnc3)=CC[C@@H]12 [abiraterone, (3β)-17-(pyridin-3-yl) androsta-5, 16-dien-3-ol] | – |
| – | 61.7 | 504 | 329 | CC(=O)O[C@H]1CC[C@@]2(C)C(=CC[C@@H]3[C@@H]2CC[C@]2(C)C(c4cccnc4)=CC[C@@H]32)C1 [abiraterone acetate] | irritating to the dogs at the injection site |
